# Results as given in ChEMBL document CHEMBL1201862, “PubChem BioAssay data set” (2004).
# The source made the active and inactive calls.
# What was measured:
# SN12K1 = test: cells; type: functional; conditions: Homo sapiens
# P388/ADR = test: cells; type: functional; conditions: Mus musculus
# [1] = target: T1, High affinity choline transporter 1 (Homo sapiens, UniProt Q9GZV3); test: CHT inhibitors, dose response, cell-based, 5-point CRC, membrane potential dye (AID 504840); type: functional
# T1 sequence (Q9GZV3 whole entry): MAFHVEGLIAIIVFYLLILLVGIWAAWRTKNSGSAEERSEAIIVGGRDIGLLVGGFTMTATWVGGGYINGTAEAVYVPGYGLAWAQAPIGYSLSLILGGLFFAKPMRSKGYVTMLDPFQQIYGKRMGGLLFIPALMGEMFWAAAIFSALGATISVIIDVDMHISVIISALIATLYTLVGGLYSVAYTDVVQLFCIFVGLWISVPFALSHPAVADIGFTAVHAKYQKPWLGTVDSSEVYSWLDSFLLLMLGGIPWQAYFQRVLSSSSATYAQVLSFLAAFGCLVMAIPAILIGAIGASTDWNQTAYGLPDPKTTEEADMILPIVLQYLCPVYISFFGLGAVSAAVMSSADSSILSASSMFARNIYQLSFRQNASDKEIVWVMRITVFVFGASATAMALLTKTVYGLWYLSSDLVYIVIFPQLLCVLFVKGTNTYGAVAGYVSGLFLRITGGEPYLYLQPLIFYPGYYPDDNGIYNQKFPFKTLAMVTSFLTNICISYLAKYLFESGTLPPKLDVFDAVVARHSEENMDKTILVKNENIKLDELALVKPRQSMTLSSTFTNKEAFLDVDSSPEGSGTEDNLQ
# Aminopeptidase N = target: T2, Aminopeptidase N (Plasmodium falciparum FcB1/Columbia, UniProt O96935); test: P. falciparum M1AAP inhibitors, biochemical, fluorogenic H-Leu-NHMec substrate, 1536-well (AID 1445); parameters: species or system Plasmodium falciparum 3D7, 3D7
# T2 sequence (O96935 whole entry): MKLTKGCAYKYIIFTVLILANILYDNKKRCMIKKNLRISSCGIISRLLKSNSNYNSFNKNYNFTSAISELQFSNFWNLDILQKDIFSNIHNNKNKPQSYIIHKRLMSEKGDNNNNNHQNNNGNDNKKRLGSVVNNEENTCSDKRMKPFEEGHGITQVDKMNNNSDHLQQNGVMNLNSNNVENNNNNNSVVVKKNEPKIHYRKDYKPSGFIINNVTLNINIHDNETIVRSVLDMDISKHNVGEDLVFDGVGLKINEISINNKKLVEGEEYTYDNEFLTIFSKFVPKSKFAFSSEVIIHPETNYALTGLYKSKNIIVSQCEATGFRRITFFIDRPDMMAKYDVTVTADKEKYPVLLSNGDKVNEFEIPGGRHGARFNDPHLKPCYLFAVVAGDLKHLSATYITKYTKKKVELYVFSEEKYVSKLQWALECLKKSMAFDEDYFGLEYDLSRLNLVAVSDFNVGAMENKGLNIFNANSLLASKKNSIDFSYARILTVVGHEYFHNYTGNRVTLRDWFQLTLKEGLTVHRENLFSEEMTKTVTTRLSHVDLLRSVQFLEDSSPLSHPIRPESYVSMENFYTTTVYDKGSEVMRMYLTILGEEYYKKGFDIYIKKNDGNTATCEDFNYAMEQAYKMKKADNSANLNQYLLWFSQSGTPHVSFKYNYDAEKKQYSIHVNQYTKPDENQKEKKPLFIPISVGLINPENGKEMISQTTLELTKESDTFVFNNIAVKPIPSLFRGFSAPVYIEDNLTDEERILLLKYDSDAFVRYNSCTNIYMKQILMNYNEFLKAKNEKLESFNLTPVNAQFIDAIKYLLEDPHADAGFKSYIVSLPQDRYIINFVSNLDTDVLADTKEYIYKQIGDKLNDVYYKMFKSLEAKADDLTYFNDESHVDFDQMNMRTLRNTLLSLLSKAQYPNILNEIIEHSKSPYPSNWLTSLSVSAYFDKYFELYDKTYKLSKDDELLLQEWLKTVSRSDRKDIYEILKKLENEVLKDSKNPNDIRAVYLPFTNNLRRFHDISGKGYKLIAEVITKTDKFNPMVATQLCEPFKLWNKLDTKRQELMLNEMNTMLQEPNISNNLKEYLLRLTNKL
# [2] = target: T3, Ubiquitin-conjugating enzyme E2 N (Homo sapiens, UniProt P61088); type: functional;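 also: Dose-response confirmation in a TR-FRET assay detecting UBC13-driven polyubiquitin chain formation, inhibition measured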
# T3 sequence (P61088 whole entry): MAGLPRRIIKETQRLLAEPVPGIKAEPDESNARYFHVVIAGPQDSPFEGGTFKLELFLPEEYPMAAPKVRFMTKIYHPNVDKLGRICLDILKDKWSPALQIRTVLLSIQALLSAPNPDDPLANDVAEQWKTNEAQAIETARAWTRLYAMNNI
# [3] = THP-1 cell cytotoxicity, dose response, cytotoxicity control for non-replicating M. tuberculosis project (AID 489025); type: functional
# cells = type: functional
# [4] = cytotoxicity in HEK-293T cells, dose response, cytotoxicity control for TCR NF-kB inhibitor project, luminescence, T-cell screen hits (AID 489026); type: functional, cell-based;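 also: cells exposed to compound about 14 hours before the viability readout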
# [5] = target: Heat shock protein HSP 90-alpha (Homo sapiens, UniProt P07900); type: functional, organism-based
# Nonstructural protein 1 = Nonstructural protein 1 (Influenza A virus, UniProt Q194T2); type: functional, Influenza A virus (A/California/07/2009(H1N1))
# Nonstructural protein 1, sequence (Q194T2 whole entry): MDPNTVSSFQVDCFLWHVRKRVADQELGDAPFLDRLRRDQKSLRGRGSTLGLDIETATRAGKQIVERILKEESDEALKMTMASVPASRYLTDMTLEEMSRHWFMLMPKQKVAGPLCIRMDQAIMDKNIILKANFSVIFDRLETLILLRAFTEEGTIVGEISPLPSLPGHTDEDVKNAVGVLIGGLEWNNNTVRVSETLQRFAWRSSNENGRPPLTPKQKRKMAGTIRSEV
# [6] = target: T4, Microphthalmia-associated transcription factor (Homo sapiens, UniProt O75030); test: TRPM1 promoter luciferase signal decrease, dose response, MITF inhibitor project, cell-based, SK-MEL-5, cherry-picked, set 3 (AID 493073); type: functional
# T4 sequence (O75030 whole entry): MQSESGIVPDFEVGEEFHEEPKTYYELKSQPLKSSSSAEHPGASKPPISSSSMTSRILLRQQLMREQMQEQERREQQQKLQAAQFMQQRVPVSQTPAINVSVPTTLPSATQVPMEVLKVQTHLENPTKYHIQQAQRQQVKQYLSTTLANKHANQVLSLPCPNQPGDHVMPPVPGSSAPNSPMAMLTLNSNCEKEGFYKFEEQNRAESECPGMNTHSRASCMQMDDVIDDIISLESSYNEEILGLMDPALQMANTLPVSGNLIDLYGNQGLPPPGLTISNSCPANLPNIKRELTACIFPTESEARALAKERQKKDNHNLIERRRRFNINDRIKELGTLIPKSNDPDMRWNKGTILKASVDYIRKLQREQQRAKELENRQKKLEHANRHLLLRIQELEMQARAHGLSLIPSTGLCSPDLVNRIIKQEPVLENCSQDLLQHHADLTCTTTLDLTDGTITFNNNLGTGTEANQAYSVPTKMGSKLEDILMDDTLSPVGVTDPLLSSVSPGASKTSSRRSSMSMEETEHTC
# [7] = control 3'UTR Renilla luciferase suppression, dose response, counter-screen for Shn3 inhibitor project, cell-based, Clone20-Shn3RL, cherry-picked (AID 624133); type: functional
# [8] = HepG2 cell cytotoxicity, dose response, cytotoxicity control for Shn3 inhibitor project, CellTiter-Glo, cherry-picked (AID 624134); type: functional, cell-based
# [9] = Shn3 3'UTR reporter inhibitors, dose response, cell-based, Clone20 osteoblasts, firefly luciferase, cherry-picked (AID 624132); type: functional;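 also: firefly luciferase luminescence from reporter carrying the Shn3 3'UTR in osteoblasts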
# INS1 = test: beta cell apoptosis inhibitors, cytokine rescue, dose response, luminescence, retest (AID 449756); type: functional, cell-based; conditions: Rattus norvegicus;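 also: cell death triggered by IL-1 beta plus TNF-alpha plus IFN-gamma mixture; protective hits raise ATP signal compared with cytokine alone wells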
# [10] = inhibitors of intracellular T. cruzi replication, confirmation, NIH3T3 host cells, beta-gal luminescence (AID 2044); type: functional, cell-based;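 also: intracellular parasites grown in NIH/3T3 mouse fibroblasts as host cells; luminescent beta-galactosidase reporter signal from transgenic T. cruzi replicating inside host cells; inhibitors lower the luminescence signal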
# [11] = cytotoxicity toward NIH3T3 fibroblasts, dose response, counter-screen, cell-based, ATP luminescence, mouse fibroblasts (AID 2010); type: functional;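 also: cells exposed to compound for about 90 hours before reading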
# [12] = A549 cell cytotoxicity, dose response, cytotoxicity control, plate reader, cherry-pick, antagonist series (AID 743412); type: functional, cell-based
# [13] = cytotoxicity toward DRD oncogenic fibroblasts, dose response, cell-based, non-viral oncogenic, luminescence (AID 1934); type: functional; conditions: Homo sapiens
# BJ [14] = test: cytotoxicity toward BJ-TERT fibroblasts, dose response, cell-based, RAS-independent, luminescence (AID 1933); type: functional; conditions: Homo sapiens
# BJ [15] = test: cells; type: functional, cell-based; conditions: Homo sapiens
# BJ [16] = test: cytotoxicity toward BJ-TERT-LT-ST fibroblasts, dose response, cell-based, RAS-independent, luminescence (AID 1935); type: functional; conditions: Homo sapiens;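 also: BJ fibroblasts immortalized with TERT plus LT and ST oncogenes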
# [17] = Luminescence Cell-Based Dose Retest to Confirm Inhibitors of Cancer Stem Cells. [Related pubchem assays (depositor defined):AID2717, AID2721]; type: functional; conditions: Homo sapiens
structure (smiles),measurement,setting,value
O=C(O)/C=C/c1c[nH]cn1,GI50,SN12K1,> 500 µM (inactive)
same,GI50,P388/ADR,> 500 µM (inactive)
CCc1c(C)nc2ccccc2c1O,IC50,[1],13.2 µM (active)
COCCNc1oc(/C=C/c2ccccc2)nc1C#N,IC50,Aminopeptidase N,36.7 µM (active)
NC1=NC[C@H](Cc2ccc(O)cc2)N1CCc1cccc2ccccc12,IC50,[2],> 20 µM (inactive)
same,CC50,[3],> 40 µM (active)
same,IC50,cells,9.5 µM (active)
Cc1ccc(N=C(N)Nc2nc(O)cc(CSc3nnc(C)s3)n2)c(C)c1,IC50,[4],> 80 µM (inactive)
COc1cc2cnc(-c3ccccc3)c(C(=O)c3ccc(F)cc3)c2cc1OC,AC50,[5],2.12 µM (active)
COC(=O)c1ccc(CSc2nc3c(c(=O)n2-c2ccccc2)SCC3)o1,IC50,Nonstructural protein 1,> 100 µM (active)
O=C(CSc1nnnn1-c1ccc(O)cc1)Nc1cccc(S(=O)(=O)N2CCCC2)c1,AC50,[6],50.2 µM (active)
O=C(c1ccc2c(=O)n(-c3ccccc3)c(=S)[nH]c2c1)N1CCCCC1,AC50,[7],3.14 µM (active)
same,AC50,[8],64.2 µM (active)
same,AC50,[9],1.44 µM (active)
O=C(CCSc1nnc(-c2ccncc2)o1)Nc1ccc(Cl)cc1,IC50,cells,29.5 µM (active)
same,AC50,[5],1.65 µM (active)
Cc1ccc(C[S+]([O-])Cc2ccc(C(=O)NC3CCCCCC3)o2)cc1 (stereo not drawn),IC50,[1],14.5 µM (active)
O=C(Nn1c(SCc2ccc(F)cc2)nc2ccsc2c1=O)c1ccccc1,IC50,Aminopeptidase N,55.6 µM (active)
CC(C)(C)C(=O)/C(=C/c1ccc(Cl)cc1)n1cncn1,AC50,[7],10.8 µM (active)
same,AC50,[8],18 µM (active)
same,AC50,[9],3.75 µM (active)
O=C1N=C(NS(=O)(=O)c2ccccc2)S/C1=C1\C(=O)Nc2ccccc21,IC50,Aminopeptidase N,25.1 µM (active)
Cc1ccc(-c2cc(C(F)F)n3ncc(C(=O)N4CCc5ccccc54)c3n2)cc1,IC50,[4],> 80 µM (inactive)
CCn1c(CNC(=O)c2cccs2)nnc1SCC(=O)Nc1cc(Cl)ccc1C,IC50,Aminopeptidase N,6.86 µM (active)
COc1ccc(CCN2C(=O)C3C4C=CC(C3C2=O)C2C(=O)N(CCc3ccc(OC)c(OC)c3)C(=O)C42)cc1OC (stereo not drawn),IC50,[4],> 80 µM (inactive)
CN(C)Cc1c(O)c(Cl)cc2c3c(c(=O)oc12)CCCC3,IC50,Aminopeptidase N,30.1 µM (active)
Cc1ccc(NC(=O)C2CCN(S(=O)(=O)c3ccc(N4CCCC4=O)cc3)CC2)cc1Cl,AC50,[7],0.808 µM (active)
same,AC50,INS1,1.93 µM (active)
same,AC50,[8],> 70 µM (inactive)
same,AC50,[9],0.549 µM (active)
O=C(O)c1cccc(N2C(=O)c3cccc4c(Cl)ccc(c34)C2=O)c1,IC50,Aminopeptidase N,83.3 µM (active)
CCOC(=O)C1=C(COC(=O)c2ccc(OC(C)C)cc2)NC(=O)NC1C (stereo not drawn),IC50,[1],16.6 µM (active)
Cc1ccc(OCCCCn2ccnc2)c(Cl)c1,EC50,[10],1.37 µM (active)
same,EC50,[11],> 60 µM (not active)
same,CC50,[3],> 40 µM (active)
same,IC50,cells,39.1 µM (active)
O=C(Sc1cccc2cccnc12)c1ccc(F)cc1,IC50,[4],> 80 µM (inactive)
Cc1cc([N+](=O)[O-])c(NC2CCCCC2)c([N+](=O)[O-])c1,IC50,Nonstructural protein 1,41.5 µM (active)
Oc1ccc(C=NNC(=S)Nc2ccc(F)cc2)c(O)c1,IC50,Nonstructural protein 1,14.6 µM (active)
O=C1C=CC(=O)N1c1ccc2c(c1)Cc1cc(F)ccc1-2,AC50,[5],< 0.195 µM (active)
CCCC(=O)NC(c1ccc(OC)c(OC)c1)c1cc(Cl)c2cccnc2c1O (stereo not drawn),EC50,[10],1.2 µM (active)
same,AC50,INS1,1.69 µM (active)
same,EC50,[11],< 6 µM (inconclusive)
same,AC50,[6],9.06 µM (active)
same,AC50,[5],12.4 µM (active)
N#Cc1cc2c(nc1SCc1ccccc1)CCCC2=O,IC50,Aminopeptidase N,86.4 µM (active)
C[C@H](CO)N1C[C@H](C)[C@H](CN(C)C(=O)CN2CCOCC2)Oc2ncc(C#CCN(C)C)cc2C1=O,AC50,[12],> 52 µM (inactive)
CC(C)(C)c1nnc(N/N=C/c2ccccc2O)n(N)c1=O,EC50,[13],2.47 µM (active)
same,EC50,BJ [14],1.86 µM (active)
same,EC50,BJ [15],8.53 µM (inconclusive)
same,IC50,[4],> 80 µM (inactive)
same,IC50,Nonstructural protein 1,5.93 µM (active)
same,EC50,BJ [16],15.1 µM (active)
C=CCN1C(=O)/C(=N\Nc2c(C)n(C)n(-c3ccccc3)c2=O)C(=O)NC1=S,IC50,Nonstructural protein 1,2.29 µM (active)
Cc1cc(C)n(CC(=O)N/N=C/c2cc([N+](=O)[O-])ccc2O)n1,IC50,Nonstructural protein 1,10.8 µM (active)
CCCOc1ccc(/C=N/Nc2cc(N3CCOCC3)ncn2)c(O)c1,AC50,INS1,2.27 µM (active)
same,AC50,[17],2.87 µM (active)
same,IC50,[4],> 80 µM (inactive)
